For three molecules, pest or weed control and melting point results are on record in US9629365B2, “Macrocyclic picolinamides compounds with fungicidal activity” (DOW AGROSCIENCES LLC, priority 2013, dated 2017).

Data set [1] relates to Puccinia triticina. Put plainly: Wheat Brown Rust (PUCCRT) fungicidal activity. As to conditions: for pest or weed control at 100 ppm: rate 100 ppm (high volume application); for pest or weed control at 121.5 g/ha: rate 121.5 g/H (low volume application). The class given is in vivo. As to the method:
(§1) Technical grades of materials were dissolved in acetone, which were then mixed with nine volumes of water containing 110 ppm Triton X-100. The fungicide solutions were applied onto wheat seedlings using an automated booth sprayer to run-off. All sprayed plants were allowed to air dry prior to further handling. All fungicides were evaluated using the aforementioned method for their activity vs. all target diseases. Wheat leaf blotch and brown rust activity were also evaluated using track spray applications, in which case the fungicides were formulated as EC formulations, containing 0.1% Trycol 5941 in the spray solutions. Wheat plants (variety Yuma) were grown from seed in a greenhouse in 50% mineral soil/50% soil-less Metro mix until the first leaf was fully emerged, with 7-10 seedlings per pot. These plants were inoculated with an aqueous spore suspension of Septoria tritici either prior to or after fungicide treatments. After inoculation the plants were kept in 100% relative humidity (one day in a dark dew chamber followed by two to three days in a lighted dew chamber at 20° C.) to permit spores to germinate and infect the leaf. The plants were then transferred to a greenhouse set at 20° C. for disease to develop. When disease symptoms were fully expressed on the 1st leaves of untreated plants, infection levels were assessed on a scale of 0 to 100 percent disease severity. Percent disease control was calculated using the ratio of disease severity on treated plants relative to untreated plants. Wheat plants (variety Yuma) were grown from seed in a greenhouse in 50% mineral soil/50% soil-less Metro mix until the first leaf was fully emerged, with 7-10 seedlings per pot. These plants were inoculated with an aqueous spore suspension of Puccinia triticina either prior to or after fungicide treatments. After inoculation the plants were kept in a dark dew room at 22° C. with 100% relative humidity overnight to permit spores to germinate and infect the leaf. The plants were then transferred to a greenhouse set at 24° C. for disease to develop. Fungicide formulation, application and disease assessment followed the procedures as described in the Example A.

The subject of data set [2] is Mycosphaerella graminicola; Anamorph: Septoria tritici. Put plainly: Leaf Blotch of Wheat (SEPTTR) fungicidal activity. The class given is in vivo. As to conditions: Zymoseptoria tritici; for pest or weed control at 100 ppm: rate 100 ppm (high volume application); for pest or weed control at 121.5 g/ha: rate 121.5 g/H (low volume application). As to the method: as §1, with “plants.” for “plants. Wheat plants (variety Yuma) were grown from seed in a greenhouse in 50% mineral soil/50% soil-less Metro mix until the first leaf was fully emerged, with 7-10 seedlings per pot. These plants were inoculated with an aqueous spore suspension of Puccinia triticina either prior to or after fungicide treatments. After inoculation the plants were kept in a dark dew room at 22° C. with 100% relative humidity overnight to permit spores to germinate and infect the leaf. The plants were then transferred to a greenhouse set at 24° C. for disease to develop. Fungicide formulation, application and disease assessment followed the procedures as described in the Example A.”

The subject of data set [3] is Cercospora beticola. Put plainly: Leaf Spot of Sugar Beets (CERCBE) fungicidal activity. The class given is in vivo. As to conditions: topical, 24 h, 1 Day Protectant, sugar beet plants, read-out: CERCBE Disease Control 1DP.
In data set [4] the test system is Phakopsora pachyrhizi. Put plainly: Asian Soybean Rust (PHAKPA) fungicidal activity. The class given is in vivo. Particulars: topical, soybean plants. The method, then: Technical grades of materials were dissolved in acetone, which were then mixed with nine volumes of water containing 0.011% Tween 20. The fungicide solutions were applied onto soybean seedlings using an automated booth sprayer to run-off. All sprayed plants were allowed to air dry prior to further handling.
Soybean plants (variety Williams 82) were grown in soil-less Metro mix, with one plant per pot. Two weeks old seedlings were used for testing. Plants were inoculated either 3 days prior to or 1 day after fungicide treatments. Plants were incubated for 24 h in a dark dew room at 22° C. and 100% RH then transferred to a growth room at 23° C. for disease to develop. Disease severity was assessed on the sprayed leaves.

Data set [5] deals with Leptosphaeria nodorum. The data set can be described thus: Wheat Glume Blotch (LEPTNO) fungicidal activity. The class given is in vivo. Particulars: Parastagonospora nodorum, 24 h, 1 Day Protectant, read-out: LEPTNO 1DP Disease Control at 100 ppm. The method, then: Technical grades of materials were dissolved in acetone, which were then mixed with nine volumes of water containing 110 ppm Triton X-100. The fungicide solutions were applied onto wheat seedlings using an automated booth sprayer to run-off. All sprayed plants were allowed to air dry prior to further handling. All fungicides were evaluated using the aforementioned method for their activity vs. all target diseases. Wheat leaf blotch and brown rust activity were also evaluated using track spray applications, in which case the fungicides were formulated as EC formulations, containing 0.1% Trycol 5941 in the spray solutions. Wheat plants (variety Yuma) were grown from seed in a greenhouse in 50% mineral soil/50% soil-less Metro mix until the first leaf was fully emerged, with 7-10 seedlings per pot. These plants were inoculated with an aqueous spore suspension of Septoria tritici either prior to or after fungicide treatments. […] When disease symptoms were fully expressed on the 1st leaves of untreated plants, infection levels were assessed on a scale of 0 to 100 percent disease severity. Percent disease control was calculated using the ratio of disease severity on treated plants relative to untreated plants. […]

The subject of data set [6] is Alternaria solani. The data set can be described thus: Tomato Early Blight (ALTESO) fungicidal activity. The class given is in vivo. Particulars: 24 h, 1 Day Protectant, tomato plants, read-out: ALTESO Disease Control 1DP.
For data set [7], the system named is Glomerella lagenarium; Anamorph: Colletotrichum lagenarium. The data set can be described thus: Cucumber Anthracnose (COLLLA) fungicidal activity. The class given is in vivo. As to conditions: Colletotrichum orbiculare, 24 h, 1 Day Protectant, cucumber seedlings, read-out: COLLLA Disease Control 1DP.
The test system of data set [8] is Venturia inaequalis. The data set can be described thus: Apple Scab (VENTIN) fungicidal activity. Particulars: 24 h, 1 Day Protectant, read-out: VENTIN 1DP Disease Control at 100 ppm. The class given is in vivo.
The subject of data set [9] is Rhyncosporium secalis. Put plainly: Barley Scald (RHYNSE) fungicidal activity. The class given is in vivo. Particulars: Hordeum vulgare, 24 h, 1 Day Protectant, read-out: RHYNSE 1DP Disease Control at 100 ppm.
Data set [10] deals with Magnaporthe grisea; Anamorph: Pyricularia oryzae. Put plainly: whole plant or invertebrate. The class given is in vivo. As to conditions: 24 h, read-out: PYRIOR 1DP Disease Control at 100 ppm.
The test system of data set [11] is Erysiphe cichoracearum. Put plainly: Powdery Mildew of Cucumber (ERYSCI) fungicidal activity. The class given is in vivo. As to conditions: Golovinomyces cichoracearum, topical, 24 h, 1 Day Protectant, cucumber seedlings, read-out: ERYSCI Disease Control 1DP.
Data set [12] relates to Blumeria graminis f. Sp. Hordei. The data set can be described thus: Barley Powdery Mildew (ERYSGH) fungicidal activity. The class given is in vivo. Particulars: 24 h, 1 Day Protectant, barley seedlings, read-out: ERYSGH Disease Control 1DP.
The subject of data set [13] is Uncinula necator. The data set can be described thus: Grape Powdery Mildew (UNCINE) fungicidal activity. The class given is in vivo. As to conditions: Erysiphe necator, 24 h, 1 Day Protectant, read-out: UNCINE 1DP Disease Control at 100 ppm.
Setting [14] is: 24 h, 1 Day Protectant, read-out: PUCCRT 1DP disease control.
Setting [15] is: 72 h, 3 Day Curative, read-out: PUCCRT 3DC disease control.
Setting [16] is: 24 h, 1 Day Protectant, read-out: SEPTTR 1DP disease control.
Where [17] appears, read: 72 h, 3 Day Curative, read-out: SEPTTR 3DC disease control.

Where two headings read alike, the source gives them in different places.

`COc1ccnc(C(=O)N[C@H]2CCC[C@H](Cc3ccc(F)cc3)[C@@H](OCC3CC3)[C@H](C)OC2=O)c1O` [F10]: the pest or weed control at 100 ppm in [1] (setting [14]), in data set [1] (setting [15]), in [2] (setting [16]) and in data set [2] (setting [17]) was 80 to 100% each time. Besides, the pest or weed control at 121.5 g/ha lay within 80 to 100% in [1] (setting [14]), 0 to 80% in data set [1] (setting [15]), 80 to 100% in data set [2] (setting [16]) and 80 to 100% in [2] (setting [17]).
As to `CO[C@@H]1[C@@H](CCC(C)C)CCC[C@H](N)C(=O)O[C@H]1C.Cl`, the melting point was in the range of 218 to 220 °C.
In the case of `COc1ccnc(C(=O)N[C@H]2CCC[C@H](CCC(C)C)[C@@H](OC(=O)C3CCCC3)[C@H](C)OC2=O)c1OCOC(C)=O` [F96], the pest or weed control at 100 ppm in data set [3], in data set [5], in data set [1] (setting [14]), in data set [1] (setting [15]), in [6] and in data set [7] was 80 to 100% in each case. Moreover, the pest or weed control at 100 ppm lay within 80 to 100% in [2] (setting [16]); 80 to 100% in [2] (setting [17]); 0 to 80% in [8]; 80 to 100% in [9]; 80 to 100% in data set [10]; 80 to 100% in data set [11]. For the same molecule, the pest or weed control at 100 ppm in data set [12] fell in the range of 0 to 80%; in data set [13], 80 to 100%. Moreover, the pest or weed control at 25 ppm fell in the range of 80 to 100% in data set [4] (24 h, 1 Day Protectant, read-out: PHAKPA Disease Control 1DP) and 0 to 80% in data set [4] (72 h, 3 Day Curative, read-out: PHAKPA Disease Control 3DC). Moreover, the pest or weed control at 121.5 g/ha in [1] (setting [14]) lay within 80 to 100%; in [1] (setting [15]), 0 to 80%; in data set [2] (setting [16]) it was 80 to 100%; in data set [2] (setting [17]) it was 80 to 100%.
